Measured values published in publication PMC7226417, “Utilizing Genome-Wide mRNA Profiling to Identify the Cytotoxic Chemotherapeutic Mechanism of Triazoloacridone C-1305 as Direct Microtubule Stabilization” (Cancers, 2020).

Test system: T1, tubulin (α/β tubulin dimer)
T1 construct: with α- and β-tubulin heterodimer
Experiment: in vitro tubulin polymerization assay, turbidity at […] nm (stabilization of polymerization)
Type: biochemical

EC50: 2740 nM
Structure (SMILES): CN(C)CCCNc1ccc2nnn3c4ccc(O)cc4c(=O)c1c23 [C-1305, 5-{[3-(Dimethylamino)propyl]amino}-8-hydroxy-6H-[1,2,3]triazolo[4,5,1-de]acridin-6-one]
